Assay results published in patent US8912121B2, “Herbicidal compositions comprising 4-amino-3-chloro-5-fluoro-6-(4-chloro-2-fluoro-3-methoxyphenyl)pyridine-2-carboxylic acid or a derivative thereof and certain PS II inhibitors” (Dow Agrosciences LLC, priority 2012, dated 2014).

Columns and labels:
Experiment in all cases: Pre-emergence soil-applied mixtures, greenhouse
[1] = system: SETFA (Setaria faberi, giant foxtail); assay type: in vivo, Setaria faberi Herrm.; conditions: Diuron 280 g ai/ha; 29 DAA
Excerpt: (§1) Seeds or nutlets of the desired test plant species were planted in a soil matrix prepared by mixing a loam soil (32 percent silt, 23 percent clay, and 45 percent sand, with a pH of about 6.5 and an organic matter content of about 1.9 percent) and calcareous grit in an 80 to 20 ratio. The soil matrix was contained in plastic pots with a volume of 1 quart and a surface area of 83.6 square centimeters (cm^2).
(§2) Treatments consisted of the benzyl ester of 4-amino-3-chloro-5-fluoro-6-(4-chloro-2-fluoro-3-methoxy-phenyl)pyridine-2-carboxylic acid (compound A) formulated as an SC (suspension concentrate) and various herbicidal components alone and in combination. Forms of compound A were applied on an acid equivalent basis.
(§3) Other herbicidal components were applied on an acid equivalent or active ingredient basis and included the PSII-inhibiting herbicides, atrazine formulated as Atrazine® 90WDG, metribuzin formulated as Metribuzin 75DF, simazine formulated as Princep Caliber 90, tebuthiuron formulated as Spike 80DF, cyanazine (technical grade material), hexazinone (technical grade material), linuron (technical grade material), terbuthylazine (technical grade material), and diuron formulated as Diuron 4L.
(§4) Treatment requirements were calculated based upon the rates being tested, the concentration of active ingredient or acid equivalent in the formulation, and a 12 mL application volume at a rate of 187 L/ha.
(§5) For treatments comprised of formulated compounds, measured amounts of compounds were placed individually in 25 mL glass vials and diluted in a volume of 1.25% (v/v) Agri-Dex® crop oil concentrate (COC) to obtain 12× stock solutions. […] Application solutions were prepared by adding an appropriate amount of each stock solution (e.g., 1 mL) and diluted to the appropriate final concentrations with the addition of 10 mL of an aqueous mixture of 1.25% (v/v) COC so that the final spray solutions contained 1.25% (v/v) COC.
(§6) For treatments comprised of technical compounds, weighed amounts can be placed individually in 25 mL glass vials and dissolved in a volume of 97:3 (v/v) acetone/DMSO to obtain 12× stock solutions. […] Application solutions can be prepared by adding an appropriate amount of each stock solution (e.g., 1 mL) and diluted to the appropriate final concentrations with the addition of 10 mL of an aqueous mixture of 1.5% (v/v) COC so that the final spray solutions contain 1.25% (v/v) COC. When technical materials are used, the concentrated stock solutions can be added to the spray solutions so that the final acetone and DMSO concentrations of the application solutions are 16.2% and 0.5%, respectively.
(§7) For treatments comprised of formulated and technical compounds, weighed amounts of the technical materials can be placed individually in 25 mL glass vials and dissolved in a volume of 97:3 (v/v) acetone/DMSO to obtain 12× stock solutions, and measured amounts of the formulated compounds can be placed individually in 25 mL glass vials and diluted in a volume of 1.5% (v/v) COC or water to obtain 12× stock solutions. […] Application solutions can be prepared by adding an appropriate amount of each stock solution (e.g., 1 mL) and diluted to the appropriate final concentrations with the addition of an appropriate amount of an aqueous mixture of 1.5% (v/v) COC so that the final spray solutions contain 1.25% (v/v) COC. As required, additional water and/or 97:3 (v/v) acetone/DMSO can be added to individual application solutions so that the final acetone and DMSO concentrations of the application solutions being compared are 8.1% and 0.25%, respectively.
(§8) All stock solutions and applications solutions were visually inspected for compound compatibility prior to application. Spray solutions were applied to the soil with an overhead Mandel track sprayer equipped with a 8002E nozzles calibrated to deliver 187 L/ha over an application area of 0.503 m^2 at a spray height of 18 inches (46 cm) above average pot height. […]

[2] = system: SETVI (Setaria viridis, green foxtail); assay type: in vivo, Setaria viridis (L.) Beauv.; conditions: Diuron 280 g ai/ha
Excerpt: as §1, §2, §3, §4
(§9) For treatments comprised of formulated compounds, measured amounts of compounds were placed individually in 25 mL glass vials and diluted in a volume of 1.25% (v/v) Agri-Dex® crop oil concentrate (COC) to obtain 12× stock solutions. […]
(§10) For treatments comprised of formulated and technical compounds, weighed amounts of the technical materials can be placed individually in 25 mL glass vials and dissolved in a volume of 97:3 (v/v) acetone/DMSO to obtain 12× stock solutions, and measured amounts of the formulated compounds can be placed individually in 25 mL glass vials and diluted in a volume of 1.5% (v/v) COC or water to obtain 12× stock solutions. […]

[3] = system: BRAPP (Brachiaria platyphylla, broadleaf signalgrass); assay type: in vivo, Brachiaria platyphylla (Groseb.) Nash; conditions: 28 DAA
Excerpt: as §1, §2, §3, §4, §5, §6, §7, §8

[4] = system: ECHCG (Echinochloa crus-galli, barnyardgrass); assay type: in vivo, Echinochloa crus-galli (L.) P. Beauv.
Excerpt: as §1, §2, §3, §4, §5
For treatments comprised of technical compounds, weighed amounts can be placed individually in 25 mL glass vials and dissolved in a volume of 97:3 (v/v) acetone/DMSO to obtain 12× stock solutions. […]
as §10

[5] = system: ABUTH (Abutilon theophrasti, velvetleaf); assay type: in vivo, Abutilon theophrasti Medik.
Excerpt: as §1, §2, §3, §4, §5, §6
as §7, with “As required, additional water and/or 97:3 (v/v) acetone/DMSO can be added to individual application solutions so that the final acetone and DMSO concentrations of the application solutions being compared are 8.1% and 0.25%, respectively.” left out

[6] = system: ECHCO (Echinochloa colonum, junglerice); assay type: in vivo, Echinochloa colonum (L.) Link; conditions: Diuron 280 g ai/ha
Excerpt: as §1, §2, §3, §4, §9, §10

## CN(C)C(=O)Nc1ccc(Cl)c(Cl)c1 [Diuron, N′-(3,4-dichlorophenyl)-N,N-dimethylurea, reference compound]
[1]
  Visual Weed Control (%)-29 DAA SETFA Obs: 5%
[2]
  Visual Weed Control (%)-29 DAA SETVI Obs: 0%
[3]; Diuron 280 g ai/ha
  Visual Weed Control (%)-28 DAA BRAPP Obs: 0%
[3]; Diuron 560 g ai/ha
  Visual Weed Control (%)-28 DAA BRAPP Obs: 35%
[4]; Diuron 280 g ai/ha
  Visual Weed Control (%)-28 DAA ECHCG Obs: 25%
[4]; Diuron 560 g ai/ha
  Visual Weed Control (%)-28 DAA ECHCG Obs: 65%
[5]; Diuron 280 g ai/ha
  Visual Weed Control (%)-29 DAA ABUTH Obs: 30%
[5]; Diuron 560 g ai/ha
  Visual Weed Control (%)-29 DAA ABUTH Obs: 70%
[5]; Diuron 1120 g ai/ha
  Visual Weed Control (%)-29 DAA ABUTH Obs: 90%
[6]
  Visual Weed Control (%)-29 DAA ECHCO Obs: 15%
